In patent US9000027B2, “Chk1 suppresses a caspase-2 apoptotic response to DNA damage that bypasses p53, bcl-2 and caspase-3” (Dana-Farber Cancer Institute, Inc., priority 2008, dated 2015):

What was measured:
[1] = test system: p53^+/+ embryos; assay: Drug toxicity: AO reactivity and development of inhibitor-treated, non-irradiated p53+/+ embryos; format: in vivo, zebrafish; details: 0 Gy
Description: Chk1 inhibitors hold considerable promise in cancer therapy, as they are expected to synergize with genotoxic agents to kill tumor cells lacking functional p53, without affecting normal cells (Kawabe, 2004; Zhou and Bartek, 2004). […] Gö6976 has not been tested in vivo in a vertebrate model system. We therefore evaluated it as well as specific Chk2 and ATM inhibitors in the zebrafish system. Drug toxicity was monitored by scoring the AO reactivity of inhibitor-treated, but non-irradiated, p53^+/+ embryos (left column in FIG. 8A). Unless otherwise indicated, the inhibitors were applied at 18 hpf (that is, immediately before IR) for a total of 6 hours.
Immediately before IR, 18-hpf embryos were dechorionated and transferred to fresh egg water containing 1% DMSO, with or without the following inhibitors at indicated final concentrations: KU55933 (10 μM; Sigma) (Hickson et al., 2004); Chk2 Inhibitor II (10 μM; Calbiochem) (Arienti et al., 2005); Gö6976 (1 μM; Calbiochem) (Kohn et al., 2003). Unless stated otherwise, embryos were exposed to the inhibitors for 6 hr, transferred to fresh egg water, rinsed five times for 5 min, and labeled with AO. For experiments with Tg(rag2:EGFP-bcl-2) larvae, larvae were incubated in the inhibitor solution at 4 dpf, irradiated at 5 dpf, rinsed at 6 dpf, incubated in fresh inhibitor for an additional 72 hr, and mounted live at 9 dpf for fluorescence microscopic analysis of EGFP expression.

[2] = test system: p53^e7/e7 mutant embryos; assay: Morpholino screen for suppressors of p53^e7/e7 radioresistance (live AO assay); format: in vivo, zebrafish; details: p53^e7/e7, 12.5 Gy at 18 hpf, 7.5 hpIR
Procedure: We used morpholino antisense oligonucleotides (MOs) to knock down the expression levels of 8 zebrafish S- and G2-checkpoint kinases in p53^e7/e7 mutant embryos and assessed the ability of each knockdown to restore cell death (AO reactivity) at 7.5 hours post-IR (hpIR). We also tested several double-knockdown combinations, as well as knockdowns of non-kinase checkpoint regulators (p21^waf1/cip1 and smc1). For each knockdown, we scored a minimum of 50 embryos and quantified AO staining in at least 5 embryos. To avoid the isolation of false-positives, we adjusted the concentrations of each MO to the maximal dose compatible with normal embryonic development in the p53^e7/e7 background.
Morpholino oligonucleotides (MOs) synthesized by Gene Tools™ LLC, were resuspended in sterile water at a concentration of 1 mM and delivered into zebrafish embryos at the one-cell stage by microinjection. […] For each previously unpublished MO, the working concentration was determined as the highest dose compatible with normal zebrafish development in the p53^e7/e7 background (maximal subtoxic concentration). […]
Live zebrafish embryos were dechorionated in pronase (2.0 mg/mL in egg water) for 3 to 5 min and rinsed five times in egg water at 18 hpf. […] Lateral images of each zebrafish were acquired on a Zeiss Axioplan2 fluorescence microscope (5× lens), using OpenLab software and a Hammamatsu C4742-95 digital camera. […]

Molecule	long-term development of non-irradiated treated embryos ([1]; p53+/+)	toxicity of the dose used (AO reactivity of non-irradiated embryos) ([1]; Gö6976 1 μM, KU55933 10 μM, Chk2 Inhibitor II 10 μM)	AO reactivity restored, of the p53+/+ response [2] [%]
Cn1c2ccccc2c2c3c(c4c5ccccc5n(CCC#N)c4c21)CNC3=O [Gö6976]	developed into normal adults without overt signs of spontaneous tumorigenesis or other pathologies	non-toxic	
chk1 MO: morpholino against zebrafish chk1 atg/5'UTR, aggcacagccattatgcaatcttcg (SEQ ID NO: 11) (AGGCACAGCCATTATGCAATCTTCG; all phosphorodiamidate morpholino (PMO))			87.7
